# Measurements published in publication PMC10569065, “Major distinctions between the two oligopeptide permease systems of Bacillus subtilis with respect to signaling, development and evolutionary divergence” (Microbiology, 2023).
# Where no end group is shown, it is not given here.
# Assays:
# [1] = system: Opp permease (Opp-only strain O+;A-, AES7413, expressing RapA); experiment: Co-culture PspoIIG-3×yfp early sporulation reporter, RapA strain, Opp-only; assay type: cell-based, Bacillus subtilis; details: 10 µM peptide, SMM with very low glucose, 3 h, ON = 10-fold higher than background
# Procedure: (§1) Flow cytometry was performed to quantify gene expression at the single-cell level, using a Beckman-Coulter Gallios flow-cytometer equipped with four lasers (405 nm, 488 nm co-linear with 561 nm, 638 nm). The emission filters used were as follows: BFP – 450/50, YFP – 525/40, mCherry – 620/30. Two methods were used to distinguish between co-cultured cells. Strains coding for rapP where transformed by plasmids carrying either an mCherry or mTag2-BFP genes under a constitutive promoter. For the rest of the strains, the same constructs were integrated into the bacterial genome at the lacA locus. YFP levels were measured relative to a set voltage, which was approximately set such that a value of 1 will be given to autofluorescence of strain PY79 in SMM medium.
# (§2) Cells were grown to OD600 <0.1, in SMM medium containing trace elements and glucose, then diluted by a factor of 10^6 or 10^7 into fresh SMM medium and grown for about 16 h in exponential phase. […] At each time point OD600nm was measured using a spectrophotometer and fluorescence was measured using a flow cytometry. […]
# (§3) Fig. 5. […] ON cells are determined as the cells that have expressed P spoIIG-3 ×yfp 10-fold higher than background. […] YFP levels were measured for single cells using flow cytometry 3 h after the peptide was added to co-culture of both strains, App and Opp. […]
# [2] = system: App permease (App-only strain O-;A+, AES7410, expressing RapA); experiment: Co-culture PspoIIG-3×yfp early sporulation reporter, RapA strain, App-only; assay type: cell-based, Bacillus subtilis; details: maximal peptide concentration, SMM with very low glucose, 3 h
# Procedure: as §1, §2, §3
# [3] = target: T1, Opp permease (Opp-only strain O+;A-, expressing RapC, RapF or RapP) (Bacillus subtilis, UniProt P24141); experiment: Co-culture PsrfA-3×yfp reporter response to added Phr peptide, Opp-only strain; assay type: cell-based
# T1 construct: full deletion mutants of the App (Opp-only; O^+;A^-) and Opp (App-only; O^-;A^+) operons; endogenous in cells; host or cells: Bacillus subtilis 3610 (plasmid-free), Opp-only strains O+;A- (AES7204, AES7202, AES5524, AES7207)
# Procedure: as §1
# (§4) Cells were grown to OD600 <0.1, in SMM medium containing trace elements and glucose, then diluted by a factor of 10^6 or 10^7 into fresh SMM medium and grown for about 16 h in exponential phase. In co-culture gene-expression experiments, each strain was grown from a single colony in SMM to OD600 <0.1 or diluted to 0.1 prior to strain mixing. The two strains were mixed at equal volumes and then diluted by a factor of 10^6 or 10^7 in fresh SMM medium. Samples were taken from cultures at several time-points. At each time point OD600nm was measured using a spectrophotometer and fluorescence was measured using a flow cytometry. […]
# [4] = system: App permease (App-only strain O-;A+, expressing RapC, RapF or RapP); experiment: Co-culture PsrfA-3×yfp reporter response to added Phr peptide, App-only strain; assay type: cell-based, Bacillus subtilis; details: co-culture with Opp-only strain, SMM, 3 h after peptide addition, PhrP increase at concentrations higher than 1 µM
# Procedure: as §1, §4
# App permease = details: previous work; cited from earlier work
# Text: App was also as effective as Opp in uptaking the PapR pentapeptide, but not in importing the PhrC/F/P pentapeptides. Previous work has identified several App transported peptides, including the nonapeptide […] [[2, 50]].
# [5] = target: T2, App permease, App^3610 allele (App-only strain O-;A+, AES7075, expressing PlcR) (Bacillus subtilis, UniProt P42061); experiment: Co-culture PplcA-3×yfp reporter of PlcR receivers, App-only strain (App3610); assay type: cell-based
# T2 construct: full deletion mutants of the App (Opp-only; O^+;A^-) and Opp (App-only; O^-;A^+) operons; endogenous in cells; host or cells: Bacillus subtilis 3610 (plasmid-free), App-only strain O-;A+ (AES7075)
# Procedure: as §1
# as §4, with “The two strains were mixed at equal volumes and then diluted by a factor of 10^6 or 10^7 in fresh SMM medium. Samples were taken from cultures at several time-points.” left out
# (§5) Fig. 8. […] YFP levels were measured for single cells using flow cytometry 3 h after the peptide was added. […] Biological repeats at the same concentrations were measured on different days. […]
# [6] = target: T3, Opp permease (Opp-only strain O+;A-, AES7207, expressing PlcR) (Bacillus subtilis, UniProt P24141); experiment: Co-culture PplcA-3×yfp reporter of PlcR receivers, Opp-only strain; assay type: cell-based
# T3 construct: full deletion mutants of the App (Opp-only; O^+;A^-) and Opp (App-only; O^-;A^+) operons; endogenous in cells; host or cells: Bacillus subtilis 3610 (plasmid-free), Opp-only strains O+;A- (AES7204, AES7202, AES5524, AES7207)
# Procedure: as §1
# as §4, with “The two strains were mixed at equal volumes and then diluted by a factor of 10^6 or 10^7 in fresh SMM medium. Samples were taken from cultures at several time-points.” left out
# as §5
# [7] = system: ɸ3T infection of B. subtilis 3610 plasmid-free permease variants; experiment: Phage ɸ3T infection dynamics (optical density) in presence of arbitrium peptide; assay type: cell-based, Bacillus subtilis; details: ɸ3T m.o.i.=0.1 in LB
# Procedure: Overnight culture grown in LB of the appropriate strain was diluted by a factor of 1 : 100 into fresh containing 0.1 mM MnCl2 and 5 mM MgCl2. The strains were then grown at 37 °C with shaking at 220 r.p.m. Upon reaching an of OD600=0.3, the strains infected with free ɸ3T at m.o.i.=0.1 and supplemented with 10 µM of the synthetic peptide SAIRGA. Optical density measurements at a wavelength of 600 nm were performed in a 96-well plate using a plate reader (PerkinElmer VICTOR Nivo 622 Multimode Plate Reader).
# We wondered whether App is capable of transporting the signalling molecules of arbitrium, the second RRNPP system found in B. subtilis phages. The B. subtilis phage φ3T utilizes an arbitrium system with the small peptide SAIRGA to control the lysis-lysogeny and induction decisions [[17, 22]]. Increased signal concentration tilts the decision towards lysogeny. To further examine the impact of App and Opp on quorum-sensing-dependent activation of φ3T horizontal transfer, we utilized a plate reader to examine the phage infection dynamics by monitoring its impact on optical density during infection of the different variants in Lysogeny Broth (LB) medium.
# Fig. 4. […] Growth curves are represented as the mean optical density (dark colour) and its error (light grey) as a function of time (minutes) taken using a plate-reader. […]
# T1 sequence (P24141 21-545): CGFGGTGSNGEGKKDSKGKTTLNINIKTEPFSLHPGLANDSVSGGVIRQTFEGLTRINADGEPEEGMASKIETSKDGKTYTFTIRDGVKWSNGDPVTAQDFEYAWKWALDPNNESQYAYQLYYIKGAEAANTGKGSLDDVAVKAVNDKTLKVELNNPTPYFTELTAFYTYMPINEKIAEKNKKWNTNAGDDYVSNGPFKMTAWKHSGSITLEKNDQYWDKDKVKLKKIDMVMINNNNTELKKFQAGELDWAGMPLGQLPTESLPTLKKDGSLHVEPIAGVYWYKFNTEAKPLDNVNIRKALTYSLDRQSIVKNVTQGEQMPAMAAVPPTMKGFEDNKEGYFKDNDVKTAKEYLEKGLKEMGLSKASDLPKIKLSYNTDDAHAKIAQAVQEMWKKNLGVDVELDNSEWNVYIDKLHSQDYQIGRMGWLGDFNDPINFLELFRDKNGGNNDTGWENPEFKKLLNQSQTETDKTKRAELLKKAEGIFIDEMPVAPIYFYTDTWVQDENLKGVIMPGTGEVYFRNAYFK
# T3 sequence (P24141 21-545): as above
# T2 sequence (P42061 24-543): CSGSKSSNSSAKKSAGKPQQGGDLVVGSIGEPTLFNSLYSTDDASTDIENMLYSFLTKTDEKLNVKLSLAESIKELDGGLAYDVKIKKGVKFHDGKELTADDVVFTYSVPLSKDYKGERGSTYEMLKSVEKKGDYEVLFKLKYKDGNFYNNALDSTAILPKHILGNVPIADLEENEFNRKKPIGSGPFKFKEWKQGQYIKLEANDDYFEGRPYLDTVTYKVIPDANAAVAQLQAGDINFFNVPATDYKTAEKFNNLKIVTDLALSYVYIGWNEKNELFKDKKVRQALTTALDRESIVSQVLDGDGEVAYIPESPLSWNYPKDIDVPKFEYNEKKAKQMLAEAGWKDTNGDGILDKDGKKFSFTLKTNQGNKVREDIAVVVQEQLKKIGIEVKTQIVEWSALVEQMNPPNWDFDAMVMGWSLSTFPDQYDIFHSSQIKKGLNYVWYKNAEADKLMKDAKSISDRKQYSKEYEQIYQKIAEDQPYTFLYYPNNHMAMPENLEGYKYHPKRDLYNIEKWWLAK
substance,measurement,setting,value
"ARNQT [PhrA, synthetic PhrA signalling pentapeptide (ARNQT) of the RapA-PhrA system]","percentage of cells with high YFP levels (ON cells, PspoIIG-3×yfp)",[1],~ 20%
same,"fraction of sporulating cells (ON cells, PspoIIG-3×yfp)",[2],0.2%
ERGMT [PhrC],EC50,[3],< 10 nM
same,"YFP levels (PsrfA-3×yfp) with increasing peptide concentrations, App-only strains",[4],marginally increased
FGFG [tetrapeptide reported in previous work as transported by App],transport by App,App permease,able to transport
FLEEI [pentapeptide reported in previous work as transported by App],transport by App,App permease,able to transport
LPFEF [penta-PapR],EC50,[5],290 nM
same,EC50,[6],650 nM
QRGMI [PhrF],EC50,[3],< 10 nM
same,"YFP levels (PsrfA-3×yfp) with increasing peptide concentrations, App-only strains",[4],marginally increased
SAIRGA [synthetic arbitrium hexapeptide of B. subtilis phage φ3T],"optical density on ɸ3T infection with peptide, App-only (O-;A+)","[7]; AES6372, 10 µM peptide",marked reduction in optical density
same,"lysis on ɸ3T infection with peptide, WT (O+;A+)","[7]; WT DS2569, 10 µM peptide added at OD600=0.3, plate reader OD600",did not lyse
